Source: patent publication US20050137233A1, “Prodrugs of 1-methyl-2-(4-amidinophenylaminomethyl)-benzimidazol-5-yl-carboxylic acid-(N-2-pyridyl-N-2-hydroxycarbonylethyl)-amide” (Boehringer Ingelheim Pharma GmbH & Co. KG, priority 2002, published 2005)

Experiments:
[1] = system: female rabbits; assay: local tolerance after subcutaneous administration, histological comparison of injection sites with placebo sites; format: in vivo
Description: For example the compounds • A=1-methyl-2-[4-(N-hydroxyamidino)-phenylaminomethyl]-benzimidazol-5-yl-carboxylic acid-(N-2-pyridyl-N-2-ethoxycarbonylethyl)-amide and • B=1-methyl-2-[4-(N-methoxycarbonylamidino)-phenylaminomethyl]-benzimidazol-5-yl-carboxylic acid-(N-2-pyridyl-N-2-hydroxycarbonylethyl)-amide were investigated for their degree of tolerance when administered by subcutaneous route by comparison with active substance II:
Solutions of the test substances were each administered by subcutaneous route once a day on three successive days to two female rabbits (age: 11 to 14 weeks, weight: 2.0 to 3.5 kg). At the same time as the substances were administered a placebo solution was injected contralaterally into the same animal. The animals were killed 48 hours after the last administration and dissected. The injection sites for administering the test substances were compared histologically with the sites of the placebo injections.

[2] = conversion of the prodrugs into active substance II, plasma concentration by HPLC-MS/MS after subcutaneous administration; format: in vivo; settings: rabbits, after subcutaneous injection, active substance II measured in plasma, detection limit 4 ng/ml
Method: In order to investigate the conversion of the prodrugs A and B into the active substance II, 1.0 ml of blood were taken from the central auricular artery of each of the test animals with K-EDTA syringes at various times after subcutaneous administration. The blood was centrifuged and the plasma was acidified with the same volume of 0.2 M hydrochloric acid. These solutions were stored at −20° C. The concentrations of the active substance II were measured using an HPLC-MS/MS apparatus (Perkin Elmer Sciex API 300 LC-MS/MS system). The detection limit was 4 ng/ml.

| Compound | degree of tolerance at the injection sites when administered by subcutaneous route ([1]; rabbit, in vivo, sc) | conversion of the prodrug into the active substance II [2] | degree of tolerance at the injection sites when administered by subcutaneous route ([1]; female rabbits, subcutaneous once a day on three successive days, histology 48 hours after the last administration, versus contralateral placebo injection) |
| --- | --- | --- | --- |
| CCOC(=O)CCN(C(=O)c1ccc2c(c1)nc(CNc1ccc(/C(N)=N\O)cc1)n2C)c1ccccn1 [A, 1-methyl-2-[4-(N-hydroxyamidino)-phenylaminomethyl]-benzimidazol-5-yl-carboxylic acid-(N-2-pyridyl-N-2-ethoxycarbonylethyl)-amide] | very well tolerated locally | converted into the active substance II |  |
| COC(=O)/N=C(/N)c1ccc(NCc2nc3cc(C(=O)N(CCC(=O)O)c4ccccn4)ccc3n2C)cc1 [B, 1-methyl-2-[4-(N-methoxycarbonylamidino)-phenylaminomethyl]-benzimidazol-5-yl-carboxylic acid-(N-2-pyridyl-N-2-hydroxycarbonylethyl)-amide] |  | converted into the active substance II | very well tolerated locally |
| Cn1c(CNc2ccc(C(=N)N)cc2)nc2cc(C(=O)N(CCC(=O)O)c3ccccn3)ccc21 [II, 1-methyl-2-(4-amidinophenylaminomethyl)-benzimidazol-5-yl-carboxylic acid-(N-2-pyridyl-N-2-hydroxycarbonylethyl)-amide] | clear signs of inflammation at the injection sites |  |  |
